Results: patent US20250032490A1, “THERAPEUTIC REGIMENS FOR TREATMENT OF PAROXYSMAL NOCTURNAL HEMOGLOBINURIA” (Achillion Pharmaceuticals, Inc., priority 2017, published 2025)

What was measured:
PNH erythrocytes = assay: CAP-mediated hemolysis assay with PNH erythrocytes (subject A); format: cell-based, human; conditions: for inhibition at 0.0234 µM: Compound 1 0.0234 μM; for inhibition at 0.0469 µM: Compound 1 0.0469 μM; for inhibition at 0.0938 µM: Compound 1 0.0938 μM; for inhibition at 0.1875 µM: Compound 1 0.1875 μM; for inhibition at 0.188 µM: Compound 1 0.188 μM; for inhibition at 0.375 µM: Compound 1 0.375 μM; for inhibition at 0.75 µM: Compound 1 0.75 μM; for inhibition at 1.5 µM: Compound 1 1.5 μM
Experimental: Complement-preserved normal human serum (NHS) from an individual donor of ABO blood group type AB (NHS-AB) was purchase from BioreclamationIVT (Westbury, NY). Gelatin veronal buffer (GVB), pH 7.3, without Ca^++ and Mg^++ (GVB^0) and 100 mM MgCl2 +100 mM EGTA (MgEGTA) were obtained from Complement Technology Inc. (Tyler, TX).
GVB^0·MgEGTA was prepared by mixing GVB^0 and 100 mM MgEGTA in a 9:1 ratio. PNH erythrocytes were used within five days of blood collection; before assay cells were collected by centrifugation at 800×g and 4° C. for 3 minutes and resuspended in fresh cold GVB^0·MgEGTA to a density of 5×10^8 cells/mL.
50 μL of NHS-AB was added to each well. The plates were mixed and incubated at room temperature for 5 minutes. 24 μL of this NHS-AB with compound was then transferred to duplicate wells of V-bottom microtiter plates each containing 76 μL GVB0·MgEGTA. 20 μL PNH erythrocytes was then added to each well and the plates were sealed, mixed, and incubated at 37° C. for 30 minutes with an added shaking for 15 minutes. […] Following incubation, PNH cells were removed by centrifugation at 800×g and 4° C. for 3 minutes, 100 μL supernatant per well was transferred to flat-bottom clear microtiter plates, and A405 of the supernatant was measured in a Molecular Devices Spectramax Plus plate reader.
Combinatorial interactions were analyzed via two methods.
Inhibition was analyzed by the method of Prichard and Shipman (Prichard, M. N. and C. Shipman, Jr. A Three-Dimensional Model to Analyze Drug-Drug Interactions. Antiviral Research 1990, 14:181-205) Three-dimensional surface graphs of each experiment were generated and analyzed using an Excel spreadsheet program adapted from the MacSynergy II spreadsheet (University of Alabama, Birmingham, AL). The X-axis and Y-axis of each surface graph represent the concentrations of the two test compounds, and the Z-axis represents the difference between measured inhibition and a theoretically determined additive inhibition. For an additive relationship, the surface graph resembles a horizontal plane at Z=0, whereas positive surface peaks indicate greater inhibition than expected and therefore synergy, and negative surface peaks indicate less inhibition than expected and therefore antagonism.
Synergy and antagonism volumes were calculated separately as the summed volumes of peaks respectively above and below the Z=0 plane. Volumes were determined using 95% confidence limits to assure significance.
Inhibition was analyzed by the method of Chou and Talalay (Chou, T.-C. and P. Talalay. Analysis of Combined Drug Effects: A New Look at a Very Old Problem. Trends Pharmacol. Sci. 1983, 4:450-454; Chou, T. C. Theoretical basis, experimental design, and computerized simulation of synergism and antagonism in drug combination studies. Pharmacological Reviews 2006, 58:621-681). Analysis using the median-effect equation of Chou and Talalay was performed with CompuSyn software (ComboSyn, Inc, Paramus, NJ). […] Combination index (CI) values were determined at inhibition values of 50%, 75%, and 90%.

[1] = system: C3 fragment deposition on rabbit erythrocytes; assay: C3 fragment deposition on rabbit erythrocytes (flow cytometry); format: cell-based; conditions: Oryctolagus cuniculus, Erythrocyte; 20% C5-depleted normal human serum; read-out: IC50, inhibition of C3 fragment deposition on rabbit erythrocytes
Experimental: Rabbit erythrocytes, C5-depleted normal human serum (C5-Dpl NHS), gelatin veronal buffer (GVB) without Ca^++ and Mg (GVB^0), 100 mM MgCl2+100 mM EGTA (MgEGTA) were obtained from Complement Technology Inc. (Tyler, TX). GVB^0·MgEGTA was prepared by mixing GVB^0 and 100 mM MgEGTA in a 9:1 ratio. FITC-conjugated anti-C3c antibody (cat#ab4212) and Alexa Fluor® 647-conjugated anti human CD59 antibody (cat#: ab187769) were purchased from Abcam (Cambridge, MA).
Reactions were incubated at 37° C. for 15 minutes, the reactions were quenched by addition of EDTA at a final concentration of 20 mM. Cells were stained with a FITC-conjugated anti-C3c antibody at a dilution of 1:200 and C3 fragment deposition on the surface of rabbit erythrocytes was assessed by flow cytometry with BD Accuri C6 cytometer (BD Biosciences, San Jose, CA). Forward and side scatter parameters were used to gate intact erythrocytes. Controls included cells labeled with FITC-conjugated antibody isotype control. IC50 values from each experiment were determined by curve-fitting of experimental data (the % C3 fragment-positive cells at increasing concentrations of inhibitor) to the four-parameter sigmoidal dose-response equation using non-linear regression analysis (Prism Software, GraphPad, La Jolla, CA).

[2] = Homo sapiens, Erythrocyte, Experiment 2, Eculizumab 0-400 μg/mL
[3] = Homo sapiens, Erythrocyte, Experiment 2, Compstatin 0-300 μM
[4] = Homo sapiens, Erythrocyte, Experiment #1, Compstatin 0-300 μM
[5] = Homo sapiens, Erythrocyte, Experiment #1, Eculizumab 0-400 μg/mL

## CC(=O)c1nn(CC(=O)N2C[C@H](F)C[C@H]2C(=O)Nc2cccc(Br)n2)c2ccc(-c3cnc(C)nc3)cc12 [Compound 1, (2S,4R)-1-(2-(3-acetyl-5-(2-methylpyrimidin-5-yl)-1H-indazol-1-yl)acetyl)-N-(6-bromopyridin-2-yl)-4-fluoropyrrolidine-2-carboxamide]
PNH erythrocytes; [2]
  inhibition at 0.0234 µM: 0%
  inhibition at 0.0469 µM: 0%
  inhibition at 0.0938 µM: 0%
  inhibition at 0.188 µM: 7%
  inhibition at 0.375 µM: 27%
  inhibition at 0.75 µM: 42%
  inhibition at 1.5 µM: 77%
PNH erythrocytes; [3]
  inhibition at 0.0938 µM: 0%
  inhibition at 0.1875 µM: 6%
  inhibition at 0.375 µM: 27%
  inhibition at 0.75 µM: 65%
  inhibition at 1.5 µM: 90%
PNH erythrocytes; Homo sapiens, Erythrocyte, Experiment 2, Compound 1 3 μM, Compstatin 0-300 μM
  inhibition at 3 µM: 97%
PNH erythrocytes; Homo sapiens, Erythrocyte, Experiment 2, Compound 1 6 μM, Compstatin 0-300 μM
  inhibition at 6 µM: 97%
PNH erythrocytes; [4]
  inhibition at 0.0234 µM: 0%
  inhibition at 0.0469 µM: 0%
  inhibition at 0.0938 µM: 0%
  inhibition at 0.1875 µM: 11%
  inhibition at 0.375 µM: 19%
  inhibition at 0.75 µM: 51%
  inhibition at 1.5 µM: 80%
PNH erythrocytes; [5]
  inhibition at 0.0234 µM: 4%
  inhibition at 0.0469 µM: 2%
  inhibition at 0.0938 µM: 6%
  inhibition at 0.188 µM: 14%
  inhibition at 0.375 µM: 24%
  inhibition at 0.75 µM: 55%
  inhibition at 1.5 µM: 86%
PNH erythrocytes; Homo sapiens, Erythrocyte, AP activity in vitro
  IC50: 14 nM
PNH erythrocytes; single agent, PNH erythrocytes
  inhibition at the high end of the test concentration ranges: complete inhibition
[1]
  IC50: 96 ± 21 nM
